Data as given in patent US6664242B2 (priority 2000, dated 2003).
Read-outs that look alike come from different tables or passages of the source.

Tests used:
[1] = system: human colon carcinoma strain HCT-116; settings: for Comments / Log10 cell Kill / T-C (Tumor Growth Delay): days 5-9, 12-16; for activity at the maximum tolerated dose: maximum tolerated doses, p.o., HCT-116 in Swiss-nude mice
Procedure: (§1) This efficacy may be quantified, for example by the log10 cells killed, which is determined by the following formula:
(§2) log10 cell killed=T-C(days)/3.32×Td
(§3) A product is considered to be active if the log10 cell kill is greater than or equal to 0.7. A product is considered to be very active is the log10 cell kill is greater than 2.8.

[2] = system: metastatic colorectal cancer; settings: oral capecitabine, first-line, phase III; cited from earlier work
[3] = system: early stage HCT-116 colon carcinoma
Procedure: as §1, §2, §3
Three dosage levels of capecitabine were given alone on days 18-22 and 25-29. In the combination arm, two semi-simultaneous schedules were investigated.

[4] = capecitabine 443 mg/kg/adm p.o.
[5] = capecitabine 713 mg/kg/adm p.o.
[6] = capecitabine 443 mg/kg/adm p.o., days 18-22 & 25-29
[7] = capecitabine 713 mg/kg/adm p.o., days 18-22 & 25-29
[8] = capecitabine 1150 mg/kg/adm p.o., days 18-22 & 25-29
[9] = CPT-11 60 mg/kg/adm p.o., days 18-22
[10] = CPT-11 96 mg/kg/adm p.o., days 18-22

CCCCCOC(=O)Nc1nc(=O)n([C@@H]2O[C@H](C)[C@@H](O)[C@H]2O)cc1F [capecitabine, 5′-deoxy-5-fluoro-N-[(pentyloxy)-carbonyl]-cytidine]
Comments [1, 4]: Active
Log10 cell Kill [1, 4]: 1.1
T-C (Tumor Growth Delay) [1, 4]: 16.3 days
Comments [1, 5]: Active
Log10 cell Kill [1, 5]: 2.6
T-C (Tumor Growth Delay) [1, 5]: 38.7 days
activity at the maximum tolerated dose [1]: highly active
efficacy compared with i.v. 5-FU/leucovorin (Mayo Clinic regimen) [2]: superior response rate and at least equivalent survival and time to disease progression
safety profile compared with the Mayo Clinic regimen [2]: more favourable safety profile
Comments [3, 6]: Active
Log10 cell Kill [3, 6]: 2.1
T-C (Tumor Growth Delay) [3, 6]: 26.1 days
Comments [3, 7]: Active
Log10 cell Kill [3, 7]: 2.1
T-C (Tumor Growth Delay) [3, 7]: 25.2 days
Log10 cell Kill [3, 8]: 3.2
T-C (Tumor Growth Delay) [3, 8]: 39.4 days

irinotecan [CPT-11]
Comments ([1]; CPT-11 29 mg/kg/adm p.o.): Active
Log10 cell Kill ([1]; CPT-11 29 mg/kg/adm p.o.): 2.1
T-C (Tumor Growth Delay) ([1]; CPT-11 29 mg/kg/adm p.o.): 30.1 days
Comments ([1]; CPT-11 48 mg/kg/adm p.o.): HNTD
Comments ([1]; CPT-11 80 mg/kg/adm p.o.): Toxic
activity at the maximum tolerated dose [1]: highly active
Comments [3, 9]: Active
Log10 cell Kill [3, 9]: 1.7
T-C (Tumor Growth Delay) [3, 9]: 21.4 days
Comments [3, 10]: HNTD
Log10 cell Kill [3, 10]: 1.7
T-C (Tumor Growth Delay) [3, 10]: 21.3 days
Comments ([3]; CPT-11 155 mg/kg/adm p.o., days 18-22): Toxic
